These results are taken from patent US20250140486A1, “FUSED AROMATIC MOLECULES AS ELECTRODE MATERIALS” (Massachusetts Institute of Technology, priority 2021, published 2025).

This data set in a line: Solubility of the solids in organic and aqueous media / common solvents. Type of data set: physicochemical.

Structures are written as SMILES.

On to `Nc1c(N)c(=O)c2[nH]c3c(=O)c(N)c(N)c(=O)c3[nH]c2c1=O` [BTABQ, tetraamino-dihydrophenazine-1,4,6,9-tetrone], for which the “solubility (form insoluble solids)” value (in both organic and aqueous media) is given as “insoluble”. Besides, the solubility result is reported as “insoluble” (in common NMR solvents) and “highly insoluble” (in common organic solvents).
